Reference: PubChem BioAssay (NCI)
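Grown in 96-well plates, cells were treated for 48 hours with each compound at five concentrations. Insufficient inhibition: endpoint recorded as highest concentration tested. GI50 is the concentration that inhibits growth by half. At the TGI there is no net growth.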

Legend:
Assay in all cases: inhibition of tumour cell growth, NCI panel, 48 h
PC-3 prostate = tested on: PC-3 prostate
NCI-H23 lung = tested on: NCI-H23 lung
A498 renal = tested on: A498 renal
ACHN renal = tested on: ACHN renal
OVCAR-8 ovarian = tested on: OVCAR-8 ovarian
HOP-92 NSCLC = tested on: HOP-92 NSCLC
UACC-257 melanoma = tested on: UACC-257 melanoma
SN12C renal = tested on: SN12C renal
K-562 leukemia = tested on: K-562 leukemia
RXF 393 renal = tested on: RXF 393 renal

Compound | GI50 (PC-3 prostate) | TGI (PC-3 prostate) | GI50 (NCI-H23 lung) | TGI (NCI-H23 lung) | GI50 (A498 renal) | TGI (A498 renal) | GI50 (ACHN renal) | TGI (ACHN renal) | GI50 (OVCAR-8 ovarian) | TGI (OVCAR-8 ovarian) | GI50 (HOP-92 NSCLC) | TGI (HOP-92 NSCLC) | GI50 (UACC-257 melanoma) | TGI (UACC-257 melanoma) | GI50 (SN12C renal) | TGI (SN12C renal) | GI50 (K-562 leukemia) | TGI (K-562 leukemia) | GI50 (RXF 393 renal) | TGI (RXF 393 renal)
CCCCC#Cc1c(I)n(C2OC(CO[Si](C)(C)C(C)(C)C)C3OC(C)(C)OC32)c(=O)[nH]c1=O (stereo not given) | 2.8 µM | 10.4 µM | 13 µM | 31.3 µM | 13.3 µM | 26 µM | 2.29 µM | 7.52 µM | 3.73 µM | 15.9 µM | 3.04 µM | 8.08 µM | 3.1 µM | 15.5 µM | 10.2 µM | 22.2 µM | 2.02 µM | 5.02 µM | 1.5 µM | 5.46 µM
COc1ccc(CNCCN2C(=O)c3ccc4c5c(ccc(c35)C2=O)C(=O)N(CCNCc2ccc(OC)cc2)C4=O)cc1 | 0.387 µM | 1.96 µM | 0.206 µM | 0.494 µM | 0.647 µM | 2.02 µM | 0.312 µM | 1.56 µM | 0.178 µM | 0.611 µM | 0.788 µM | 2.68 µM | 0.184 µM | 0.337 µM | 0.159 µM | 0.323 µM | 0.217 µM | 0.96 µM | 0.225 µM | 0.981 µM
CCCCCCCC(=O)SCC/C=C/[C@@H]1CC(=O)NCc2cccc(n2)CN(Cc2ccc(Cl)cc2)CC(=O)N[C@@H](C(C)C)C(=O)O1 | 15.9 µM | > 100 µM | 13.7 µM | > 100 µM | 8.67 µM | 22.8 µM | 6.44 µM | 49.8 µM | 9.1 µM | > 100 µM | 8.76 µM | 41.8 µM | 8.99 µM | 70.4 µM | 22.8 µM | > 100 µM | 11 µM | > 100 µM | 5.9 µM | 44 µM
O=C1CCc2cc([N+](=O)[O-])ccc2O1 |  | > 100 µM |  | > 100 µM |  | > 100 µM |  | > 100 µM |  | > 100 µM |  | > 100 µM |  | > 100 µM |  | > 100 µM |  | > 100 µM |  | > 100 µM
